Data as given in article PMC2707030 (Clinical cancer research : an official journal of the …, 2009).

Legend:
[1] = Population pharmacokinetics; type: in vivo, human
[2] = cited from earlier work
[3] = rats; cited from earlier work
[4] = tested on: ATP-binding cassette transporter ABCB1 (P-glycoprotein, MDR1); conditions: cited from earlier work
[5] = nonparametric bootstrap, 1342 converged of 1500 runs, 98 patients, final model

For `C/C=C1\NC(=O)[C@H]2CSSCC/C=C/[C@H](CC(=O)N[C@H](C(C)C)C(=O)N2)OC(=O)[C@H](C(C)C)NC1=O` [romidepsin], the “CL, non-carriers of ABCB1 2677 GA/AA” value ([1]; difference to carriers did not reach statistical criteria (ΔOFV = 3.4)) was 16 L/h, the Estimated elimination half-life ([1]; following 4-hour infusion, 14 or 18 mg/m^2, final two-compartment model) was 3.5 h and the “CL, carriers of ABCB1 2677 GA/AA” value ([1]; n=7, difference to non-carriers did not reach statistical criteria (ΔOFV = 3.4)) was 13 L/h. For the same compound, the “CL, bootstrap analysis median (%RSE)” value [1, 5] was 15.9 (6.2) L/h, the “Q, bootstrap analysis median (%RSE)” value [1, 5] was 1.01 (14.7) L/h and the “V1, bootstrap analysis median (%RSE)” value [1, 5] was 9.71 (8.9) L. The “V2, bootstrap analysis median (%RSE)” value [1, 5] was 4.73 (11.1) L, the “Total clearance reported in adults” value ([2]; dose 13 mg/m^2) was 4.8 L/h/m^2 and the “Mean CL reported in adults” value ([2]; dose 17.8 mg/m^2) was 10.5 L/h/m^2. For the same compound, the “Fraction of the dose excreted into the bile” value [3] was 66% and the “Substrate of ABCB1” value [4] was “substrate”.
